According to publication PMC12223310, “Mining the heparinome for cryptic antimicrobial peptides that selectively kill Gram-negative bacteria” (Molecular Systems Biology, 2025):
≈ marks a conversion by molar mass, not a printed value. Where two headings read alike, the source gives them in different places. Ends that are not written are not given here.

Experiments:
[1] = system: Escherichia coli; format: cell-based, Escherichia coli BW25113
Experimental: (§1) Antimicrobial activities were determined by the microtiter broth dilution method recommended by the National Committee of Laboratory Safety and Standards (NCLSS), adapted for AMPs (Wiegand et al, [2008]). Briefly, overnight bacterial cell cultures were brought to an exponential growth state (OD600 = 0.4) in MH broth and diluted to a final concentration of 5 × 10^5 CFU/mL. In all, 1:2 peptide serial dilutions were prepared in 96-well polypropylene plates (Greiner, Frickenhausen, Germany), in MH medium containing 0.2% (w/v) of bovine serum albumin (BSA) and 0.02% glacial acetic acid. […] The lowest concentration with no colonies was taken as MBC. The results are the average of three independent studies.

[2] = system: Acinetobacter baumannii; format: cell-based, Acinetobacter baumannii ATCC 15308
Experimental: as §1

[3] = system: Listeria monocytogenes; format: cell-based, Listeria monocytogenes ATCC 19112
Experimental: as §1

[4] = system: Pseudomonas sp (Pseudomonas aeruginosa); format: cell-based, Pseudomonas aeruginosa ATCC 15915
Experimental: as §1

[5] = system: Staphylococcus aureus; format: cell-based, Staphylococcus aureus ATCC 12600
Experimental: as §1

[6] = Cytotoxicity, MTT assay; format: cell-based; conditions: human, HepG2 cells, 4 h peptide incubation in MEMα, average of three studies, read-out: LC50 (HepG2 cells)
Experimental: (§2) Toxicity in MRC-5 and HepG2 cells was tested by the MTT assay, as described (Bello-Madruga et al, [2023]). Cell lines were maintained in Eagle’s minimum essential medium (MEMα) supplemented with 10% fetal bovine serum (FBS). Cells were cultured in 75-cm^2 flasks and then transferred to polystyrene 96-well plates, at 3 × 10^4 cells per well, and incubated overnight for attachment to the well surface. Then culture media was removed and 1:2 peptide serial dilutions in MEMα were added to each well and later incubated for 4 h. After incubation, peptides were removed and 100 μL of 0.5 mg/mL MTT staining solution in MEMα supplemented with 10% FBS was added to cells and incubated for 1.5 h at 37 °C. Formazan crystals in living cells were detected after disruption with 200 μL dimethyl sulfoxide and then absorbance was measured at 570 nm in a Tecan Spark instrument (Tecan, Männedorf, Switzerland). The results are the average of three independent studies.

[7] = system: Enterococcus faecium; format: cell-based, Enterococcus faecium ATCC 19434
Experimental: as §1

[8] = in vitro; format: cell-based; conditions: human, MRC-5 cells
Experimental: as §2

[9] = system: P. aeruginosa 827632; format: cell-based
Experimental: as §1

[10] = system: A. baumannii 3880; format: cell-based
Experimental: as §1

[11] = system: P. aeruginosa 827651; format: cell-based
Experimental: as §1

[12] = system: E. coli 1166795; format: cell-based
Experimental: as §1

[13] = system: E. coli CFT073; format: cell-based
Experimental: as §1

[14] = system: A. baumannii 3878; format: cell-based
Experimental: as §1

HNLFRKLTHQLFRRNFGYTLRSV-NH2 [Peptide R10]
MIC E. coli [1]: 0.4 µM | MIC A. baumannii [2]: 0.4 µM | MIC L. monocytogenes [3]: 1.6 µM | MIC Pseudomonas sp [4]: 0.8 µM | MIC S. aureus [5]: 6.3 µM

HNLFRKLTAALFRANFGYTLRSV-NH2 [ΔCPC’]
MIC E. coli [1]: 1.6 µM | MIC A. baumannii [2]: 1.6 µM | MIC L. monocytogenes [3]: 3.1 µM | MIC Pseudomonas sp [4]: 1.6 µM | MIC S. aureus [5]: 6.3 µM

FRFKRKLPKYLLF-NH2 [HBP-3]
MBC E. coli [1]: 3.1 µM | MIC E. coli [1]: 3.1 µM | MBC A. baumannii [2]: 0.8 µM | MIC A. baumannii [2]: 0.8 µM | MBC L. monocytogenes [3]: 12.5 µM | MIC L. monocytogenes [3]: 6.3 µM | MBC Pseudomonas sp [4]: 6.3 µM | MIC Pseudomonas sp [4]: 6.3 µM | CC50 at 4 h [6]: > 200 µM | MBC S. aureus [5]: 50 µM | MIC S. aureus [5]: 25 µM | MBC E. faecium [7]: >100/ > 100 µM | MIC E. faecium [7]: >100/ > 100 µM | CC50 at 4 h [8]: > 200 µM | MBC P. aeruginosa 827632 [9]: 25 µM | MIC P. aeruginosa 827632 [9]: 25 µM | MBC A. baumannii 3880 [10]: 6.3 µM | MIC A. baumannii 3880 [10]: 6.3 µM | MBC P. aeruginosa 827651 [11]: 12.5 µM | MIC P. aeruginosa 827651 [11]: 12.5 µM | MBC E. coli 1166795 [12]: 1.6 µM | MIC E. coli 1166795 [12]: 1.6 µM | MBC E. coli CFT073 [13]: 25 µM | MIC E. coli CFT073 [13]: 12.5 µM | MBC A. baumannii 3878 [14]: 6.3 µM | MIC A. baumannii 3878 [14]: 6.3 µM

HNLFRKLTHRLFRQNFGYTLRSV-NH2 [Peptide R14]
MIC E. coli [1]: 0.4 µM | MIC A. baumannii [2]: 0.4 µM | MIC L. monocytogenes [3]: 3.1 µM | MIC Pseudomonas sp [4]: 0.4 µM | MIC S. aureus [5]: 6.3 µM

GWKDKKSYRWFLQHRPQVGYIRVRFY-NH2 [HBP-4]
MBC E. coli [1]: 0.2 µM | MIC E. coli [1]: 0.2 µM | MBC A. baumannii [2]: 0.8 µM | MIC A. baumannii [2]: 0.8 µM | MBC L. monocytogenes [3]: 3.1 µM | MIC L. monocytogenes [3]: 1.6 µM | MBC Pseudomonas sp [4]: 0.8 µM | MIC Pseudomonas sp [4]: 0.8 µM | CC50 at 4 h [6]: 38 µM | MBC S. aureus [5]: 12.5 µM | MIC S. aureus [5]: 3.1 µM | MBC E. faecium [7]: 50 µM | MIC E. faecium [7]: 12.5 µM | CC50 at 4 h [8]: 35 µM | MBC P. aeruginosa 827632 [9]: 6.3 µM | MIC P. aeruginosa 827632 [9]: 6.3 µM | MBC A. baumannii 3880 [10]: 1.6 µM | MIC A. baumannii 3880 [10]: 1.6 µM | MBC P. aeruginosa 827651 [11]: 6.3 µM | MIC P. aeruginosa 827651 [11]: 3.1 µM | MBC E. coli 1166795 [12]: < 0.1 µM | MIC E. coli 1166795 [12]: < 0.1 µM | MBC E. coli CFT073 [13]: 1.6 µM | MIC E. coli CFT073 [13]: 0.8 µM | MBC A. baumannii 3878 [14]: 0.8 µM | MIC A. baumannii 3878 [14]: 0.8 µM

CC[C@H](C)[C@H](NC(=O)[C@H](CCCCN)NC(=O)[C@H](CCC(=O)O)NC(=O)[C@H](CCCCN)NC(=O)[C@H](CO)NC(=O)[C@H](CCCCN)NC(=O)[C@H](CCCNC(=N)N)NC(=O)[C@H](Cc1ccccc1)NC(=O)[C@H](Cc1ccccc1)NC(=O)[C@H](CC(=O)O)NC(=O)CNC(=O)[C@H](CC(C)C)NC(=O)[C@@H](N)CC(C)C)C(=O)NCC(=O)N[C@@H](CCCCN)C(=O)N[C@@H](CCC(=O)O)C(=O)N[C@@H](Cc1ccccc1)C(=O)N[C@@H](CCCCN)C(=O)N[C@@H](CCCNC(=N)N)C(=O)N[C@H](C(=O)N[C@H](C(=O)N[C@@H](CCC(N)=O)C(=O)N[C@@H](CCCNC(=N)N)C(=O)N[C@H](C(=O)N[C@@H](CCCCN)C(=O)N[C@@H](CC(=O)O)C(=O)N[C@@H](Cc1ccccc1)C(=O)N[C@@H](CC(C)C)C(=O)N[C@@H](CCCNC(=N)N)C(=O)N[C@@H](CC(N)=O)C(=O)N[C@@H](CC(C)C)C(=O)N[C@H](C(=O)N1CCC[C@H]1C(=O)N[C@@H](CCCNC(=N)N)C(=O)N[C@H](C(=O)N[C@@H](CCC(=O)O)C(=O)N[C@@H](CO)C(N)=O)[C@@H](C)O)C(C)C)[C@@H](C)CC)C(C)C)[C@@H](C)CC [LL-37, reference compound]
MBC E. coli ([1]; MIC wells plated on LB agar, overnight 37 °C, no colonies, average of three studies): 3.1 µM (≈ 13.9 µg/mL) | MIC E. coli ([1]; microtiter broth dilution, MH broth, 5 × 10^5 CFU/mL, overnight 37 °C, average of three studies): 1.6 µM (≈ 7.19 µg/mL) | MBC A. baumannii [2]: 6.3 µM (≈ 28.3 µg/mL) | MIC A. baumannii [2]: 6.3 µM (≈ 28.3 µg/mL) | MBC L. monocytogenes [3]: 3.1 µM (≈ 13.9 µg/mL) | MIC L. monocytogenes [3]: 0.8 µM (≈ 3.59 µg/mL) | MBC Pseudomonas sp [4]: 0.8 µM (≈ 3.59 µg/mL) | MIC Pseudomonas sp [4]: 0.8 µM (≈ 3.59 µg/mL) | CC50 at 4 h [6]: 53 µM | MBC S. aureus [5]: 25 µM (≈ 112 µg/mL) | MIC S. aureus [5]: 25 µM (≈ 112 µg/mL) | MBC E. faecium [7]: 3.1 µM (≈ 13.9 µg/mL) | MIC E. faecium [7]: 0.8 µM (≈ 3.59 µg/mL) | CC50 at 4 h ([8]; MTT, 4 h peptide incubation in MEMα, average of three studies, read-out: LC50 (MRC-5 cells)): 26 µM

RWHLTHRPKTGYIRVLVH-NH2 [HBP-1]
MBC E. coli [1]: 1.6 µM | MIC E. coli [1]: 1.6 µM | MBC A. baumannii [2]: 1.6 µM | MIC A. baumannii [2]: 1.6 µM | MBC L. monocytogenes [3]: 12.5 µM | MIC L. monocytogenes [3]: 6.3 µM | MBC Pseudomonas sp [4]: 3.1 µM | MIC Pseudomonas sp [4]: 3.1 µM | CC50 at 4 h [6]: > 200 µM | MBC S. aureus [5]: > 100 µM | MIC S. aureus [5]: 50 µM | MBC E. faecium [7]: ≥100/ > 100 µM | MIC E. faecium [7]: ≥100/ > 100 µM | CC50 at 4 h [8]: > 200 µM | MBC P. aeruginosa 827632 [9]: 25 µM | MIC P. aeruginosa 827632 [9]: 25 µM | MBC A. baumannii 3880 [10]: 12.5 µM | MIC A. baumannii 3880 [10]: 12.5 µM | MBC P. aeruginosa 827651 [11]: 50 µM | MIC P. aeruginosa 827651 [11]: 25 µM | MBC E. coli 1166795 [12]: 1.6 µM | MIC E. coli 1166795 [12]: 1.6 µM | MBC E. coli CFT073 [13]: 3.1 µM | MIC E. coli CFT073 [13]: 3.1 µM | MBC A. baumannii 3878 [14]: 1.6 µM | MIC A. baumannii 3878 [14]: 1.6 µM

RFYLSKKKWVMVP-NH2 [HBP-2]
MBC E. coli [1]: 25 µM | MIC E. coli [1]: 12.5 µM | MBC A. baumannii [2]: 50 µM | MIC A. baumannii [2]: 50 µM | MBC L. monocytogenes [3]: > 100 µM | MIC L. monocytogenes [3]: 37.5 µM | MBC Pseudomonas sp [4]: 50 µM | MIC Pseudomonas sp [4]: 25 µM | CC50 at 4 h [6]: > 200 µM | MBC S. aureus [5]: >100/ > 100 µM | MIC S. aureus [5]: >100/ > 100 µM | MBC E. faecium [7]: >100/ > 100 µM | MIC E. faecium [7]: >100/ > 100 µM | CC50 at 4 h [8]: > 200 µM | MBC P. aeruginosa 827632 [9]: > 100 µM | MIC P. aeruginosa 827632 [9]: > 100 µM | MBC A. baumannii 3880 [10]: > 50 µM | MIC A. baumannii 3880 [10]: > 50 µM | MBC P. aeruginosa 827651 [11]: > 100 µM | MIC P. aeruginosa 827651 [11]: > 100 µM | MBC E. coli 1166795 [12]: 12.5 µM | MIC E. coli 1166795 [12]: 12.5 µM | MBC E. coli CFT073 [13]: 100 µM | MIC E. coli CFT073 [13]: 50 µM | MBC A. baumannii 3878 [14]: 50 µM | MIC A. baumannii 3878 [14]: 50 µM
